From patent US10538497B2, “Compounds as indoleamine 2,3-dioxygenase inhibitors” (Merck Sharp & Dohme Corp., priority 2015, dated 2020)

What was measured:
IDO1 [1] = target: T1, IDO1 (Homo sapiens (Human), UniProt P14902); assay: IDO1 Cellular Assay in Frozen HEK293 Cells Transiently Transfected with Human IDO1; assay type: cell-based; settings: read-out: IDO1 HEK293 Cell Assay, IC50
IDO1 [2] = target: T1, IDO1; assay: IDO1 Cellular Assay in Hela Cells Stimulated with IFNγ; assay type: cell-based; settings: Hela cells stimulated with IFNγ 100 ng/mL; read-out: IDO1 HELA Cell Assay, IC50
IDO1 [3] = target: T1, IDO1; assay: IDO1 Enzyme Assay; settings: HIS-tagged recombinant IDO1, 40 nM
[4] = HEK293 cells transiently transfected with human IDO1
[5] = read-out: IDO1 Enzyme Assay, IC50

T1 sequence (P14902 whole entry): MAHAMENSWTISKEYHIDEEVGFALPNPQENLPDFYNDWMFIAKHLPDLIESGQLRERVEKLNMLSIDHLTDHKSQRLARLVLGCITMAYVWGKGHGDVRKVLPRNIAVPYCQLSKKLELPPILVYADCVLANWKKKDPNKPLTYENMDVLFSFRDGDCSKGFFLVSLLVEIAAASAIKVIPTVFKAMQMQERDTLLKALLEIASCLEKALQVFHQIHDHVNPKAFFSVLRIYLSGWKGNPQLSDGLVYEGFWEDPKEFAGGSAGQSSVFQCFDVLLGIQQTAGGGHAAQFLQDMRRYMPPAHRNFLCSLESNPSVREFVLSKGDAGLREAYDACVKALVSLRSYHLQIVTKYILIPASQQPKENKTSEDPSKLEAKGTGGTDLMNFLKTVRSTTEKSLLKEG

SMILES | IC50 (IDO1 [1]; [4]) [nM] | IC50 (IDO1 [2]) [nM] | IC50 (IDO1 [3]; [5]) [nM] | IC50 (IDO1 [1]) [nM] | IC50 (IDO1 [3]; IDO1 Enzyme Assay, IC50, nM) [nM]
NC(=O)CSc1nonc1/C(=N/O)Nc1ccc(F)c(Br)c1 [Example 77, 2-({4-[N-(3-bromo-4-fluorophenyl)-N′-hydroxycarbamimidoyl]-1,2,5-oxadiazol-3-yl}sulfanyl)acetamide] | 36.4 | 43.5 | 51.8 | – | –
CN1CCOC(CSc2nonc2/C(=N/O)Nc2ccc(F)c(Br)c2)C1 (stereo not drawn) [Example 78, N-(3-bromo-4-fluorophenyl)-N′-hydroxy-4-{[(4-methylmorpholin-2-yl)methyl]sulfanyl}-1,2,5-oxadiazole-3-carboximidamide] | 101 | 57.7 | 90.9 | – | –
O=C(NCCSc1nonc1/C(=N/O)Nc1ccc(F)c(Br)c1)C(F)(F)F [Example 79, N-[2-({4-[N-(3-bromo-4-fluorophenyl)-N′-hydroxycarbamimidoyl]-1,2,5-oxadiazol-3-yl}sulfanyl)ethyl]-2,2,2-trifluoroacetamide] | 27.5 | 24.1 | 61.6 | – | –
N#CC12CC(CSc3nonc3/C(=N/O)Nc3ccc(F)c(Br)c3)(C1)C2 [Example 80, N-(3-bromo-4-fluorophenyl)-4-{[(3-cyanobicyclo[1.1.1]pent-1-yl)methyl]sulfanyl}-N′-hydroxy-1,2,5-oxadiazole-3-carboximidamide] | 78.1 | 37.9 | 125 | – | –
CNC(=O)N1CC(Sc2nonc2/C(=N/O)Nc2ccc(F)c(Br)c2)C1 [Example 81, 3-({4-[N-(3-bromo-4-fluorophenyl)-N′-hydroxycarbamimidoyl]-1,2,5-oxadiazol-3-yl}sulfanyl)-N-methylazetidine-1-carboxamide] | 36.9 | 42.9 | 41.8 | – | –
O=S1(=O)CCC(Sc2nonc2/C(=N/O)Nc2ccc(F)c(Br)c2)CC1 [Example 82, N-(3-bromo-4-fluorophenyl)-4-[(1,1-dioxidotetrahydro-2H-thiopyran-4-yl)sulfanyl]-N′-hydroxy-1,2,5-oxadiazole-3-carboximidamide] | 78.1 | 40.6 | 102 | – | –
O=C1CC[C@H](CSc2nonc2/C(=N/O)Nc2ccc(F)c(Br)c2)N1 [Example 83, N-(3-bromo-4-fluorophenyl)-N′-hydroxy-4-({[(2R)-5-oxopyrrolidin-2-yl]methyl}sulfanyl)-1,2,5-oxadiazole-3-carboximidamide] | 11.5 | 75.9 | 22.8 | – | –
N#C/N=C(\N)NCCSc1nonc1/C(=N/O)Nc1ccc(F)c(Br)c1 [Example 85, N-(3-bromo-4-fluorophenyl)-4-{[2-(N″- cyanocarbamimidamido)ethyl]sulfanyl}-N′-hydroxy-1,2,5-oxadiazole-3-carboximidamide] | 35.7 | 16.9 | 39.3 | – | –
CC(=O)N1CCC(Sc2nonc2/C(=N/O)Nc2ccc(F)c(Br)c2)CC1 [Example 87, 4-[(1-acetylpiperidin-4-yl)sulfanyl]-N-(3-bromo-4-fluorophenyl)-N′-hydroxy-1,2,5-oxadiazole-3-carboximidamide] | 133 | 70 | 99.7 | – | –
O=c1c(NCCSc2nonc2/C(=N/O)Nc2ccc(F)c(Br)c2)c(N2CCOCC2)c1=O [Example 91, N-(3-bromo-4-fluorophenyl)-N′-hydroxy-4-({2-[(2-morpholin-4-yl-3,4-dioxocyclobut-1-en-1-yl)amino]ethyl}sulfanyl)-1,2,5-oxadiazole-3-carboximidamide] | 367 | 357 | 57.4 | – | –
O=c1[nH]nc(CSc2nonc2/C(=N/O)Nc2ccc(F)c(Br)c2)cc1C(F)(F)F [Example 92, N-(3-bromo-4-fluorophenyl)-N′-hydroxy-4-({[6-oxo-5-(trifluoromethyl)-1,6-dihydropyridazin-3-yl]methyl}sulfanyl)-1,2,5-oxadiazole-3-carboximidamide] | 364 | 145 | 99.5 | – | –
O=c1c(NCCSc2nonc2/C(=N/O)Nc2ccc(F)c(Br)c2)c(N2CCCCC2)c1=O [Example 93, N-(3-bromo-4-fluorophenyl)-4-({2-[(3,4-dioxo-2-piperidin-1-ylcyclobut-1-en-1-yl)amino]ethyl}sulfanyl)-N′-hydroxy-1,2,5-oxadiazole-3-carboximidamide] | 404 | 249 | 39 | – | –
CC(C)Nc1c(NCCSc2nonc2/C(=N/O)Nc2ccc(F)c(Br)c2)c(=O)c1=O [Example 94, N-(3-bromo-4-fluorophenyl)-N′-hydroxy-4-{[2-({2-[(1-methylethyl)amino]-3,4-dioxocyclobut-1-en-1-yl}amino)ethyl]sulfanyl}-1,2,5-oxadiazole-3-carboximidamide] | 193 | 73 | 26.8 | – | –
NC(=O)CCSc1nonc1/C(=N/O)Nc1ccc(F)c(Br)c1 [Example 96, 3-({4-[N-(3-bromo-4-fluorophenyl)-N′-hydroxycarbamimidoyl]-1,2,5-oxadiazol-3-yl}sulfanyl)propanamide] | 32.9 | 24.7 | 36.9 | – | –
CC(C)OC(=O)[C@H](C)NP(=O)(CCSc1nonc1/C(=N/O)Nc1ccc(F)c(Br)c1)N[C@@H](C)C(=O)OC(C)C [Example 97, 1-methylethyl (2S,6S)-4-[2-({4-[N-(3-bromo-4-fluorophenyl)-N′-hydroxycarbamimidoyl]-1,2,5-oxadiazol-3-yl}sulfanyl)ethyl]-2,6,9-trimethyl-7-oxo-8-oxa-3,5-diaza-4-phosphadecan-1-oate 4-oxide] | 745 | 380 | 132 | – | –
N/C(=C\[N+](=O)[O-])NCCSc1nonc1C(=NO)Nc1ccc(F)c(Br)c1 [Example 99, 4-[(2-{[(E)-1-amino-2-nitroethenyl]amino}ethyl)sulfanyl]-N-(3-bromo-4-fluorophenyl)-N′-hydroxy-1,2,5-oxadiazole-3-carboximidamide] | 231 | 195 | 84 | – | –
COCCNP(=O)(CCSc1nonc1/C(=N/O)Nc1ccc(F)c(Br)c1)NCCOC [Example 100, 4-[(2-{bis[(2-methoxyethyl)amino]phosphoryl}ethyl)sulfanyl]-N-(3-bromo-4-fluorophenyl)-N′-hydroxy-1,2,5-oxadiaxole-3-carboximidamide] | 582 | 342 | 98.8 | – | –
CNP(=O)(CCSc1nonc1/C(=N/O)Nc1ccc(F)c(Br)c1)NC [Example 103, 4-({2-[bis(methylamino)phosphoryl]ethyl}sulfanyl)-N-(3-bromo-4-fluorophenyl)-N′-hydroxy-1,2,5-oxadiazole-3-carboximidamide] | – | 32.3 | 48.5 | 84.5 | –
CNC(=O)N1CCC(Sc2nonc2/C(=N/O)Nc2ccc(F)c(Br)c2)CC1 [Example 104, 4-({4-[N-(3-bromo-4-fluorophenyl)-N′-hydroxycarbamimidoyl]-1,2,5-oxadiazol-3-yl}sulfanyl)-N-methylpiperidine-1-carboxamide] | 269 | 353 | 169 | – | –
COCCNC(=O)CCSc1nonc1/C(=N/O)Nc1ccc(F)c(Br)c1 [Example 106, 3-({4-[N-(3-bromo-4-fluorophenyl)-N′-hydroxycarbamimidoyl]-1,2,5-oxadiazol-3-yl}sulfanyl)-N-(2-methoxyethyl)propanamide] | 78.7 | 558 | 30 | – | –
O=C(CCSc1nonc1/C(=N/O)Nc1ccc(F)c(Br)c1)NCCO [Example 107, 3-({4-[N-(3-bromo-4-fluorophenyl)-N′-hydroxycarbamimidoyl]-1,2,5-oxadiazol-3-yl}sulfanyl)-N-(2-hydroxyethyl)propanamide] | 43.1 | 48.3 | 30.1 | – | –
CCNC(=O)CSc1nonc1C(=NO)Nc1ccc(F)c(Br)c1 [Example 110, 2-({4-[N-(3-bromo-4-fluorophenyl)-N′-hydroxycarbamimidoyl]-1,2,5-oxadiazol-3-yl}sulfanyl)-N-ethylacetamide] | 25.6 | 54.3 | – | – | 48.5
CN(C)C(=O)CSc1nonc1C(=NO)Nc1ccc(F)c(Br)c1 [Example 111, 2-({4-[N-(3-bromo-4-fluorophenyl)-N′-hydroxycarbamimidoyl]-1,2,5-oxadiazol-3-yl}sulfanyl)-N,N-dimethylacetamide] | 446 | 685 | – | – | 59.6
O=C(CSc1nonc1C(=NO)Nc1ccc(F)c(Br)c1)NCCO [Example 112, 2-({4-[N-(3-bromo-4-fluorophenyl)-N′-hydroxycarbamimidoyl]-1,2,5-oxadiazol-3-yl}sulfanyl)-N-(2-hydroxyethyl)acetamide] | 40 | 40.8 | – | – | 54.2
O=C(CSc1nonc1/C(=N/O)Nc1ccc(F)c(Br)c1)NC1CC1 [Example 113, 2-({4-[N-(3-bromo-4-fluorophenyl)-N′-hydroxycarbamimidoyl]-1,2,5-oxadiazol-3-yl}sulfanyl)-N-cyclopropylacetamide] | 35.4 | 76.5 | – | – | 47.3
O=C(CSc1nonc1C(=NO)Nc1ccc(F)c(Br)c1)NC1CCC1 [Example 114, 2-({4-[N-(3-bromo-4-fluorophenyl)-N′-hydroxycarbamimidoyl]-1,2,5-oxadiazol-3-yl}sulfanyl)-N-cyclobutylacetamide] | 97 | 148 | – | – | 36.9
CC(=O)CSc1nonc1/C(=N/O)Nc1ccc(F)c(Br)c1 [Example 115, N-(3-bromo-4-fluorophenyl)-N′-hydroxy-4-[(2-oxopropyl)sulfanyl]-1,2,5-oxadiazole-3-carboximidamide] | 105 | 168 | 51 | – | –
